Source: the kinase profiling compilation of Christmann-Franck et al. (2016)

Legend:
Experiment in all cases: KINOMEscan competition binding
Details in all cases: compound 10.0 µM
CDK4 CCND3 (human) = CDK4 CCND3 (human) (UniProt P11802+P30281)
[1] = tested on: EGFR (human), P00533 [746-750 del]
MTOR (human) = MTOR (human) (UniProt P42345)
[2] = tested on: EGFR (human), P00533 [L861Q]
DDR1 (human) = DDR1 (human) (UniProt Q08345)
KIT (human) = KIT (human) (UniProt P10721)
STK39 (human) = STK39 (human) (UniProt Q9UEW8)
MAP2K5 (human) = MAP2K5 (human) (UniProt Q13163)
PI4KB (human) = PI4KB (human) (UniProt Q9UBF8)
NIM1 (human) = NIM1 (human) (UniProt Q8IY84)
BRAF (human) = BRAF (human) (UniProt P15056)
HIPK3 (human) = HIPK3 (human) (UniProt Q9H422)
DSTYK (human) = DSTYK (human) (UniProt Q6XUX3)
OXSR1 (human) = OXSR1 (human) (UniProt O95747)
[3] = tested on: PIK3CA (human), P42336 [H1047Y]
[4] = tested on: PIK3CA (human), P42336 [Q546K]
BTK (human) = BTK (human) (UniProt Q06187)
DYRK1A (human) = DYRK1A (human) (UniProt Q13627)
MAST1 (human) = MAST1 (human) (UniProt Q9Y2H9)
MAP3K6 (human) = MAP3K6 (human) (UniProt O95382)
PRPF4B (human) = PRPF4B (human) (UniProt Q13523)
MAP3K2 (human) = MAP3K2 (human) (UniProt Q9Y2U5)
PIP5K1C (human) = PIP5K1C (human) (UniProt O60331)
NEK11 (human) = NEK11 (human) (UniProt Q8NG66)
MAP3K1 (human) = MAP3K1 (human) (UniProt Q13233)
PRKCI (human) = PRKCI (human) (UniProt P41743)
SIK3 (human) = SIK3 (human) (UniProt Q9Y2K2)
GRK7 (human) = GRK7 (human) (UniProt Q8WTQ7)
SGK3 (human) = SGK3 (human) (UniProt Q96BR1)
SBK1 (human) = SBK1 (human) (UniProt Q52WX2)
CRK2 (P.falciparum) = CRK2 (P.falciparum) (UniProt P61075)
[5] = tested on: PIK3CA (human), P42336 [E545A]
EGFR (human) = EGFR (human) (UniProt P00533)
CASK (human) = CASK (human) (UniProt O14936)
TAOK2 (human) = TAOK2 (human) (UniProt Q9UL54)
[6] = tested on: PIK3CA (human), P42336 [I800L]
[7] = tested on: FLT3 (human), P36888 [K663Q]
PIK3CA (human) = PIK3CA (human) (UniProt P42336)
MYLK3 (human) = MYLK3 (human) (UniProt Q32MK0)
STK38 (human) = STK38 (human) (UniProt Q15208)

BTK (human), sequence (Q06187 whole entry, looked up): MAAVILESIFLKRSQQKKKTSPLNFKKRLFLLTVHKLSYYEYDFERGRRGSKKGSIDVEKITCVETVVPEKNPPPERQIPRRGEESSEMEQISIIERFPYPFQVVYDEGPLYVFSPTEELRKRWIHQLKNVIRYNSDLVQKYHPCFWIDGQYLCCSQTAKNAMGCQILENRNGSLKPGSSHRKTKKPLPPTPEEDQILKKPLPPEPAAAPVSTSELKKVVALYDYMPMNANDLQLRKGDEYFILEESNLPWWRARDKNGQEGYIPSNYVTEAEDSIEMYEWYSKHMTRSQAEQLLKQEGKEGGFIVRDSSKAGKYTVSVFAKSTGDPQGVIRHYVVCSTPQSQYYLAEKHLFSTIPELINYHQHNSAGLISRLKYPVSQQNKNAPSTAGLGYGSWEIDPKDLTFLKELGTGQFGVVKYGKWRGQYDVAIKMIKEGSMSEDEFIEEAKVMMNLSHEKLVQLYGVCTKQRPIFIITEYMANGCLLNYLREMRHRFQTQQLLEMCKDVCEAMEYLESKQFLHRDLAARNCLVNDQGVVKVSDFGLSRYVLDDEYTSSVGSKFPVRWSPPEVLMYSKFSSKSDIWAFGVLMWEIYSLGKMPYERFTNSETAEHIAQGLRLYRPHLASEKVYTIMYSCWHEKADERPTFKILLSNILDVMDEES
MAP3K2 (human), sequence (Q9Y2U5 whole entry, looked up): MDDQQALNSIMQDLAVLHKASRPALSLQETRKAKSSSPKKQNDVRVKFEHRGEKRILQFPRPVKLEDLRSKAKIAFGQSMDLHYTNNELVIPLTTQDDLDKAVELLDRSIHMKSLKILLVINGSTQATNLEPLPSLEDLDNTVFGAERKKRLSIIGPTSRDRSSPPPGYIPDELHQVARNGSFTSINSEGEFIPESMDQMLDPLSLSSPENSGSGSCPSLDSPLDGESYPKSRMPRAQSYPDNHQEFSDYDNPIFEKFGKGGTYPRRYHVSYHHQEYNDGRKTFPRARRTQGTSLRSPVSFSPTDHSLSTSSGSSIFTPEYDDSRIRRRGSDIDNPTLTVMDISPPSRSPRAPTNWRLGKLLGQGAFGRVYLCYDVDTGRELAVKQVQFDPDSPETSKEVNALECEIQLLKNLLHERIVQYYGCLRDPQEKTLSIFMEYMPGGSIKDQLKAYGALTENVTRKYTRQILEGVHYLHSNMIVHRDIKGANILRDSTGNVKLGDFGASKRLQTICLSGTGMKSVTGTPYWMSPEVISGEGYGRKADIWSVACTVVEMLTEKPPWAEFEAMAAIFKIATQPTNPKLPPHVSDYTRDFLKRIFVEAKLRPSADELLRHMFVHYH
MAST1 (human), sequence (Q9Y2H9 whole entry, looked up): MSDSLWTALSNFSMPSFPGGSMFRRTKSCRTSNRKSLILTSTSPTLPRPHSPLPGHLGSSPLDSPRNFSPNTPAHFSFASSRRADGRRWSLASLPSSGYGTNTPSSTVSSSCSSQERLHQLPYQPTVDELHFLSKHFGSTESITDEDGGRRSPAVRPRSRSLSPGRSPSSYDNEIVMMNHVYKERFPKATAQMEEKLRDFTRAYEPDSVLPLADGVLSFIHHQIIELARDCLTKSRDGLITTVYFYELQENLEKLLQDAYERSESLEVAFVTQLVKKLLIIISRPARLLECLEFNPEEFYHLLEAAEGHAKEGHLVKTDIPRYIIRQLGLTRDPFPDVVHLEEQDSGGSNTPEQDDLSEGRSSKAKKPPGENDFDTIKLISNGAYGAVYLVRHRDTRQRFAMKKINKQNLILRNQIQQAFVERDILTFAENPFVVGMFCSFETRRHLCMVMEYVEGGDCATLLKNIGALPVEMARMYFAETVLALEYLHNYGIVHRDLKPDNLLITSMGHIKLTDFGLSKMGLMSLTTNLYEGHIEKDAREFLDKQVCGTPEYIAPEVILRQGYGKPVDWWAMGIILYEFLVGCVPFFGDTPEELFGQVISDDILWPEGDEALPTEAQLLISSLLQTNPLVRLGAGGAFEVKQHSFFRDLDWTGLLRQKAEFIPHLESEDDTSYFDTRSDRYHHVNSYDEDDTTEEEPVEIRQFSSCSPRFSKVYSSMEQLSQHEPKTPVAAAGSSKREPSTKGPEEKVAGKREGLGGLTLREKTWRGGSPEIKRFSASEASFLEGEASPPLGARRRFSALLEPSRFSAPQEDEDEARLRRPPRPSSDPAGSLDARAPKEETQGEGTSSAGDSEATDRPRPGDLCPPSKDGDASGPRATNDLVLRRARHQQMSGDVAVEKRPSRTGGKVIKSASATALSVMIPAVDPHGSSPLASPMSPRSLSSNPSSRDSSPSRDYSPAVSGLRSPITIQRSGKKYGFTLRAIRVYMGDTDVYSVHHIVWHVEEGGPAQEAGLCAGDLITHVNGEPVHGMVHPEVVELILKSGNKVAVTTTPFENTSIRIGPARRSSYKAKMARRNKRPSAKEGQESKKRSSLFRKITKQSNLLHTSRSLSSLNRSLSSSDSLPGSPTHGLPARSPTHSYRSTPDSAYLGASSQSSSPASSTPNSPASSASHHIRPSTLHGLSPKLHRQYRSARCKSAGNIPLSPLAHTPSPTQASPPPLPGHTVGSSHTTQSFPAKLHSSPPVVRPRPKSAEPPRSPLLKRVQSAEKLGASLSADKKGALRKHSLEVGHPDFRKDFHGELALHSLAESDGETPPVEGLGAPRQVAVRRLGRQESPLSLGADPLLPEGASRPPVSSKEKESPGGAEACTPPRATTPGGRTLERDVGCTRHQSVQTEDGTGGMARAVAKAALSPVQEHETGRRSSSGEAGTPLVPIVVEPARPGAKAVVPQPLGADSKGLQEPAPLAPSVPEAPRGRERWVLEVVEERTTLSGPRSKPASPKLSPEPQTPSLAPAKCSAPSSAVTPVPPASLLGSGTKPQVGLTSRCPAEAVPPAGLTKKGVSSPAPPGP
NIM1 (human), sequence (Q8IY84 whole entry, looked up): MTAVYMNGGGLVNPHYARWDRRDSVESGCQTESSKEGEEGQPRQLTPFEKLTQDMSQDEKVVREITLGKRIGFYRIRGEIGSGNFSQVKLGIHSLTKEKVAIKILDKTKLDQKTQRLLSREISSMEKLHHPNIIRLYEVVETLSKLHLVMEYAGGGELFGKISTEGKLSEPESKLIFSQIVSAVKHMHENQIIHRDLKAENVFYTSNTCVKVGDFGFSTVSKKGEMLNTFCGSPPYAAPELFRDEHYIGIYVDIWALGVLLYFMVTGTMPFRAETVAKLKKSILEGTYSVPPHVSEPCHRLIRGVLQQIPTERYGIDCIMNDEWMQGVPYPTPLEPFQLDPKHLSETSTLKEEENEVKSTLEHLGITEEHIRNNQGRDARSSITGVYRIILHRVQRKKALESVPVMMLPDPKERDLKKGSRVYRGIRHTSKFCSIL
PI4KB (human), sequence (Q9UBF8 whole entry, looked up): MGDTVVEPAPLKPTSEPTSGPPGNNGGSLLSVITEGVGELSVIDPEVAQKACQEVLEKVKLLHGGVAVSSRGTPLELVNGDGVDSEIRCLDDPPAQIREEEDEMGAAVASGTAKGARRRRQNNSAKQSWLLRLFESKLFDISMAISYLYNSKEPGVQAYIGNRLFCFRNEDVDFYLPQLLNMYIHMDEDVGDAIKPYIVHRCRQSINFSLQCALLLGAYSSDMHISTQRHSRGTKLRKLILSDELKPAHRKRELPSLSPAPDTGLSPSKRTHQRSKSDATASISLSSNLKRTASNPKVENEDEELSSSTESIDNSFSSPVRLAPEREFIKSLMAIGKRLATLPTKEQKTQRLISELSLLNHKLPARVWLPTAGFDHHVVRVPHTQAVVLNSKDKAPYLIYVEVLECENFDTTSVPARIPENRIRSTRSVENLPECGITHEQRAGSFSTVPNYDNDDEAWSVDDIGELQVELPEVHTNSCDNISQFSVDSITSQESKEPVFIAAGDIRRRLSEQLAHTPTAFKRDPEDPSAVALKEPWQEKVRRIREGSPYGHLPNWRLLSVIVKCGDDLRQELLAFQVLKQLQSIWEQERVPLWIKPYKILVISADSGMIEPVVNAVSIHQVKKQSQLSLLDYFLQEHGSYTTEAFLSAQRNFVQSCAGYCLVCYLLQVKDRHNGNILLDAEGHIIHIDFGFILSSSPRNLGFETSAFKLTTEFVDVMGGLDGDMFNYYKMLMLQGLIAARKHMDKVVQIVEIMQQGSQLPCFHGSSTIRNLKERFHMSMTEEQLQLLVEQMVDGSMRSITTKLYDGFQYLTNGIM
KIT (human), sequence (P10721 whole entry, looked up): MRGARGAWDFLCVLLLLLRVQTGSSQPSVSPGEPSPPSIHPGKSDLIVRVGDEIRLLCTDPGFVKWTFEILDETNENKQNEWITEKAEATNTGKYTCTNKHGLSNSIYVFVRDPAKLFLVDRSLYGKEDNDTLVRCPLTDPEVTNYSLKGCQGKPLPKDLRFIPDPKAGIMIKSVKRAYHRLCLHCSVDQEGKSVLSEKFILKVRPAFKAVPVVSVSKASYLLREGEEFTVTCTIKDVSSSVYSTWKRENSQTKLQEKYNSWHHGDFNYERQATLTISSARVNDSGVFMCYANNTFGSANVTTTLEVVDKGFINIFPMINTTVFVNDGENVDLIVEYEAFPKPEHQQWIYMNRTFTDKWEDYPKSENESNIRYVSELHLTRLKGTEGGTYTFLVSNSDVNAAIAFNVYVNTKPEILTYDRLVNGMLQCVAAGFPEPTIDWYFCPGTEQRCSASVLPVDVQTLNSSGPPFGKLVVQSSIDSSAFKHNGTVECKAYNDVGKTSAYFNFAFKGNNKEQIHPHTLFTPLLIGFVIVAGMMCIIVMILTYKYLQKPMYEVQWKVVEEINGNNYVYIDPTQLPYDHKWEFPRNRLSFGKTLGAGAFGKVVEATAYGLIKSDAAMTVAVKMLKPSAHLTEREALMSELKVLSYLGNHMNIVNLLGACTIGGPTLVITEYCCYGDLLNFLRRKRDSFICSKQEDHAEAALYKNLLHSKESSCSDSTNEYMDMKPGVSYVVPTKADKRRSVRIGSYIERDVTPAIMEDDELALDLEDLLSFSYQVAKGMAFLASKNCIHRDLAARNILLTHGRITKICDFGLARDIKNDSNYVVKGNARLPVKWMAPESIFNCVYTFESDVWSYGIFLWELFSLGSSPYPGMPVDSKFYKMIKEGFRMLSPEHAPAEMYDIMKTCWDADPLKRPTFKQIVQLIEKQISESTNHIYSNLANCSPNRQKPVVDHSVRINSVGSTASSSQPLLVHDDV

| Compound | kinase still bound, per cent of control (CDK4 CCND3 (human)) [%] | kinase still bound, per cent of control [1] [%] | kinase still bound, per cent of control (MTOR (human)) [%] | kinase still bound, per cent of control [2] [%] | kinase still bound, per cent of control (DDR1 (human)) [%] | kinase still bound, per cent of control (KIT (human)) [%] | kinase still bound, per cent of control (STK39 (human)) [%] | kinase still bound, per cent of control (MAP2K5 (human)) [%] | kinase still bound, per cent of control (PI4KB (human)) [%] | kinase still bound, per cent of control (NIM1 (human)) [%] | kinase still bound, per cent of control (HIPK3 (human)) [%] | kinase still bound, per cent of control (DSTYK (human)) [%] | kinase still bound, per cent of control (OXSR1 (human)) [%] | kinase still bound, per cent of control [3] [%] | kinase still bound, per cent of control [4] [%] | kinase still bound, per cent of control (BTK (human)) [%] | kinase still bound, per cent of control (DYRK1A (human)) [%] | kinase still bound, per cent of control (MAST1 (human)) [%] | kinase still bound, per cent of control (MAP3K6 (human)) [%] | kinase still bound, per cent of control (PRPF4B (human)) [%] | further results |
| --- | --- | --- | --- | --- | --- | --- | --- | --- | --- | --- | --- | --- | --- | --- | --- | --- | --- | --- | --- | --- | --- |
| Cc1ccc2nc(NCCN)c3ncc(C)n3c2c1 | 75 | 100 | 87 | 100 | 100 | 37 | 100 | 96 | 100 | 100 | 32 | 100 | 100 | 26 | 38 | 100 | 39 | 100 | 100 | 66 | kinase still bound, per cent of control (BRAF (human)): 95%; kinase still bound, per cent of control (MAP3K2 (human)): 100%; kinase still bound, per cent of control (PIP5K1C (human)): 92%; kinase still bound, per cent of control (NEK11 (human)): 100%; kinase still bound, per cent of control (MAP3K1 (human)): 74%; kinase still bound, per cent of control (PRKCI (human)): 88%; kinase still bound, per cent of control (SIK3 (human)): 100%; kinase still bound, per cent of control (GRK7 (human)): 100%; kinase still bound, per cent of control (SGK3 (human)): 100%; kinase still bound, per cent of control (SBK1 (human)): 100%; kinase still bound, per cent of control (CRK2 (P.falciparum)): 100%; kinase still bound, per cent of control [5]: 31%; kinase still bound, per cent of control (EGFR (human)): 100%; kinase still bound, per cent of control (CASK (human)): 100%; kinase still bound, per cent of control (TAOK2 (human)): 70%; kinase still bound, per cent of control [6]: 100%; kinase still bound, per cent of control [7]: 92%; kinase still bound, per cent of control (PIK3CA (human)): 100% |
| C=CC(=O)Nc1cccc(Nc2nc(N[C@H]3CC[C@H](N(C)C)CC3)nc3c2ncn3C(C)C)c1 | 23 | 88 | 100 | 100 | 100 | 52 | 51 | 59 | 100 | 66 | 26 | 86 | 33 | 90 | 100 | 35 | 20 | 83 | 86 | 90 | kinase still bound, per cent of control (MYLK3 (human)): 100%; kinase still bound, per cent of control (MAP3K2 (human)): 0.2%; kinase still bound, per cent of control (PIP5K1C (human)): 100%; kinase still bound, per cent of control (NEK11 (human)): 54%; kinase still bound, per cent of control (STK38 (human)): 19%; kinase still bound, per cent of control (MAP3K1 (human)): 100%; kinase still bound, per cent of control (PRKCI (human)): 93%; kinase still bound, per cent of control (SIK3 (human)): 92%; kinase still bound, per cent of control (GRK7 (human)): 8.7%; kinase still bound, per cent of control (SGK3 (human)): 85%; kinase still bound, per cent of control (SBK1 (human)): 20%; kinase still bound, per cent of control (CRK2 (P.falciparum)): 100%; kinase still bound, per cent of control [5]: 100%; kinase still bound, per cent of control (EGFR (human)): 100%; kinase still bound, per cent of control (CASK (human)): 92%; kinase still bound, per cent of control (TAOK2 (human)): 66%; kinase still bound, per cent of control [6]: 100%; kinase still bound, per cent of control [7]: 1.2%; kinase still bound, per cent of control (PIK3CA (human)): 100% |
